{"source": "paper PMC10323144", "about": "“Garbage in, garbage out: how reliable training data improved a virtual screening approach against SARS-CoV-2 MPro” (Frontiers in Pharmacology, 2023)", "note": "Square brackets hold non-standard residues; d marks the D form. Peptide text beside a SMILES is read from it. * marks the point of attachment. NMeF = CN[CH](Cc1ccccc1)C(=O)O; NMeA = CN[CH](C)C(=O)O; tBu = CC(C)(C)*"}
{"target": "SARS-CoV-2 MPro (Severe acute respiratory syndrome coronavirus 2, UniProt P0DTD1)", "experiment": "MPro activity assay (de-quenching of Edans fluorescence on cleavage of a Dabcyl/Edans peptide)", "assay_type": "biochemical", "conditions": "in-house acquired data, internal screening under standardized conditions (128 compounds)"}
{"smiles": "O=c1c2ccccc2sn1-c1nc2cc(Sc3ccccc3)ccc2[nH]1", "note": "[COV19021]", "Class (MPro activity class)": "1 (Compounds with IC50 < 10 µM or with a percentage of enzyme inhibition >50% at 10 µM were labelled as ACTIVE)"}
{"smiles": "O=C(Cn1ccnc1NC(=O)c1ccccc1I)NCc1ccccc1", "note": "[COV19022]", "Class (MPro activity class)": "0 (compounds with IC50 > 20 μM, percentage inhibition <80% at 20 µM or 50 μM, or percentage enzyme inhibition <50% at 10 µM were labelled as INACTIVE)"}
{"smiles": "O=C(Cn1ccnc1-n1sc2ccccc2c1=O)NCc1ccccc1", "note": "[COV19023]", "Class (MPro activity class)": "0 (compounds with IC50 > 20 μM, percentage inhibition <80% at 20 µM or 50 μM, or percentage enzyme inhibition <50% at 10 µM were labelled as INACTIVE)"}
{"smiles": "COc1ccc(CNC(=O)c2ccccc2I)cc1", "note": "[COV19024]", "Class (MPro activity class)": "0 (compounds with IC50 > 20 μM, percentage inhibition <80% at 20 µM or 50 μM, or percentage enzyme inhibition <50% at 10 µM were labelled as INACTIVE)"}
{"smiles": "Cc1ccc(NC(=O)c2ccccc2I)cc1", "note": "[COV19025]", "Class (MPro activity class)": "0 (compounds with IC50 > 20 μM, percentage inhibition <80% at 20 µM or 50 μM, or percentage enzyme inhibition <50% at 10 µM were labelled as INACTIVE)"}
{"smiles": "O=C(Nc1ccccc1)c1ccccc1I", "note": "[COV19026]", "Class (MPro activity class)": "0 (compounds with IC50 > 20 μM, percentage inhibition <80% at 20 µM or 50 μM, or percentage enzyme inhibition <50% at 10 µM were labelled as INACTIVE)"}
{"smiles": "O=C(Nc1ccc(Cl)cc1)c1ccccc1I", "note": "[COV19027]", "Class (MPro activity class)": "0 (compounds with IC50 > 20 μM, percentage inhibition <80% at 20 µM or 50 μM, or percentage enzyme inhibition <50% at 10 µM were labelled as INACTIVE)"}
{"smiles": "Cc1cccc(Cl)c1NC(=O)c1ccccc1I", "note": "[COV19028]", "Class (MPro activity class)": "0 (compounds with IC50 > 20 μM, percentage inhibition <80% at 20 µM or 50 μM, or percentage enzyme inhibition <50% at 10 µM were labelled as INACTIVE)"}
{"smiles": "O=C(Nc1nc2cc(Sc3ccccc3)ccc2[nH]1)c1ccccc1I", "note": "[COV19029]", "Class (MPro activity class)": "0 (compounds with IC50 > 20 μM, percentage inhibition <80% at 20 µM or 50 μM, or percentage enzyme inhibition <50% at 10 µM were labelled as INACTIVE)"}
{"smiles": "O=C(Nc1ccc([N+](=O)[O-])cc1)c1ccccc1I", "note": "[COV19030]", "Class (MPro activity class)": "0 (compounds with IC50 > 20 μM, percentage inhibition <80% at 20 µM or 50 μM, or percentage enzyme inhibition <50% at 10 µM were labelled as INACTIVE)"}
{"smiles": "COc1cccc(OC)c1NC(=O)c1ccccc1I", "note": "[COV19031]", "Class (MPro activity class)": "0 (compounds with IC50 > 20 μM, percentage inhibition <80% at 20 µM or 50 μM, or percentage enzyme inhibition <50% at 10 µM were labelled as INACTIVE)"}
{"smiles": "O=C(NCc1ccc(C(F)(F)F)cc1)c1ccccc1I", "note": "[COV19032]", "Class (MPro activity class)": "0 (compounds with IC50 > 20 μM, percentage inhibition <80% at 20 µM or 50 μM, or percentage enzyme inhibition <50% at 10 µM were labelled as INACTIVE)"}
{"smiles": "O=C(Nc1cccc2ccccc12)c1ccccc1I", "note": "[COV19033]", "Class (MPro activity class)": "0 (compounds with IC50 > 20 μM, percentage inhibition <80% at 20 µM or 50 μM, or percentage enzyme inhibition <50% at 10 µM were labelled as INACTIVE)"}
{"smiles": "Cc1cccc(C(=O)Nc2ccccc2)c1I", "note": "[COV19034]", "Class (MPro activity class)": "0 (compounds with IC50 > 20 μM, percentage inhibition <80% at 20 µM or 50 μM, or percentage enzyme inhibition <50% at 10 µM were labelled as INACTIVE)"}
{"smiles": "NC(=O)c1ccccc1I", "note": "[COV19035]", "Class (MPro activity class)": "0 (compounds with IC50 > 20 μM, percentage inhibition <80% at 20 µM or 50 μM, or percentage enzyme inhibition <50% at 10 µM were labelled as INACTIVE)"}
{"smiles": "Cc1cccc(C(N)=O)c1I", "note": "[COV19036]", "Class (MPro activity class)": "0 (compounds with IC50 > 20 μM, percentage inhibition <80% at 20 µM or 50 μM, or percentage enzyme inhibition <50% at 10 µM were labelled as INACTIVE)"}
{"smiles": "O=C(Nc1ccc(C(F)(F)F)cc1)c1ccccc1I", "note": "[COV19037]", "Class (MPro activity class)": "0 (compounds with IC50 > 20 μM, percentage inhibition <80% at 20 µM or 50 μM, or percentage enzyme inhibition <50% at 10 µM were labelled as INACTIVE)"}
{"smiles": "Cc1ccc(NC(=O)c2c(C)cc(Cl)cc2I)cc1", "note": "[COV19038]", "Class (MPro activity class)": "0 (compounds with IC50 > 20 μM, percentage inhibition <80% at 20 µM or 50 μM, or percentage enzyme inhibition <50% at 10 µM were labelled as INACTIVE)"}
{"smiles": "Cc1cc(Cl)cc(I)c1C(=O)NCc1ccccc1", "note": "[COV19039]", "Class (MPro activity class)": "0 (compounds with IC50 > 20 μM, percentage inhibition <80% at 20 µM or 50 μM, or percentage enzyme inhibition <50% at 10 µM were labelled as INACTIVE)"}
{"smiles": "Cc1cccc(C(=O)NCc2ccccc2)c1I", "note": "[COV19040]", "Class (MPro activity class)": "0 (compounds with IC50 > 20 μM, percentage inhibition <80% at 20 µM or 50 μM, or percentage enzyme inhibition <50% at 10 µM were labelled as INACTIVE)"}
{"smiles": "CC1C(=O)NC(Cc2ccccc2)C(=O)N(C)C(Cc2ccccc2)C(=O)NCC(=O)N1C", "note": "(stereo not shown) [COV19080] (cyclo(G[NMeA]F[NMeF]); configuration not given here)", "Class (MPro activity class)": "0 (compounds with IC50 > 20 μM, percentage inhibition <80% at 20 µM or 50 μM, or percentage enzyme inhibition <50% at 10 µM were labelled as INACTIVE)"}
{"smiles": "CC1C(=O)NC(Cc2ccc(OC(C)(C)C)cc2)C(=O)NCC(=O)N(C)C(Cc2ccccc2)C(=O)N1C", "note": "(stereo not shown) [COV19081] (cyclo(G[NMeF][NMeA]Y(tBu)); configuration not given here)", "Class (MPro activity class)": "0 (compounds with IC50 > 20 μM, percentage inhibition <80% at 20 µM or 50 μM, or percentage enzyme inhibition <50% at 10 µM were labelled as INACTIVE)"}
{"smiles": "CC1NC(=O)C(Cc2ccccc2)N(C)C(=O)CNC(=O)C(Cc2ccccc2)N(C)C1=O", "note": "(stereo not shown) [COV19097] (cyclo(G[NMeF]A[NMeF]); configuration not given here)", "Class (MPro activity class)": "0 (compounds with IC50 > 20 μM, percentage inhibition <80% at 20 µM or 50 μM, or percentage enzyme inhibition <50% at 10 µM were labelled as INACTIVE)"}
{"smiles": "CC(=NNC(N)=S)c1cc2ccccc2oc1=O", "note": "[COV19136]", "Class (MPro activity class)": "0 (compounds with IC50 > 20 μM, percentage inhibition <80% at 20 µM or 50 μM, or percentage enzyme inhibition <50% at 10 µM were labelled as INACTIVE)"}
{"smiles": "CNC(=S)NN=C(C)c1cc2ccccc2oc1=O", "note": "[COV19137]", "Class (MPro activity class)": "0 (compounds with IC50 > 20 μM, percentage inhibition <80% at 20 µM or 50 μM, or percentage enzyme inhibition <50% at 10 µM were labelled as INACTIVE)"}
{"smiles": "CCNC(=S)NN=C(C)c1cc2ccccc2oc1=O", "note": "[COV19138]", "Class (MPro activity class)": "0 (compounds with IC50 > 20 μM, percentage inhibition <80% at 20 µM or 50 μM, or percentage enzyme inhibition <50% at 10 µM were labelled as INACTIVE)"}
{"smiles": "CC(=NNC(=S)Nc1ccccc1)c1cc2ccccc2oc1=O", "note": "[COV19139]", "Class (MPro activity class)": "0 (compounds with IC50 > 20 μM, percentage inhibition <80% at 20 µM or 50 μM, or percentage enzyme inhibition <50% at 10 µM were labelled as INACTIVE)"}
{"smiles": "CC(=NNC(N)=S)c1c(O)c2ccccc2oc1=O", "note": "[COV19140]", "Class (MPro activity class)": "0 (compounds with IC50 > 20 μM, percentage inhibition <80% at 20 µM or 50 μM, or percentage enzyme inhibition <50% at 10 µM were labelled as INACTIVE)"}
{"smiles": "CNC(=S)NN=C(C)c1c(O)c2ccccc2oc1=O", "note": "[COV19141]", "Class (MPro activity class)": "0 (compounds with IC50 > 20 μM, percentage inhibition <80% at 20 µM or 50 μM, or percentage enzyme inhibition <50% at 10 µM were labelled as INACTIVE)"}
{"smiles": "CCNC(=S)NN=C(C)c1c(O)c2ccccc2oc1=O", "note": "[COV19142]", "Class (MPro activity class)": "0 (compounds with IC50 > 20 μM, percentage inhibition <80% at 20 µM or 50 μM, or percentage enzyme inhibition <50% at 10 µM were labelled as INACTIVE)"}
{"smiles": "CC(=NNC(=S)Nc1ccccc1)c1c(O)c2ccccc2oc1=O", "note": "[COV19143]", "Class (MPro activity class)": "0 (compounds with IC50 > 20 μM, percentage inhibition <80% at 20 µM or 50 μM, or percentage enzyme inhibition <50% at 10 µM were labelled as INACTIVE)"}
